# Assay results: patent US9951089B2, “Methods of treating a fatty acid amide hydrolase-mediated condition” (INFINITY PHARMACEUTICALS, INC., priority 2010, dated 2018)
# Legend:
# [1] = Compatibility study: stability of drug product suspended in CMC vehicle; type: physicochemical; details: suspension in carboxymethylcellulose sodium (CMC) vehicle
# Source text: (§1) In the clinic, protocol-specified portions of drug product are suspended in a vehicle consisting of commercially available medium viscosity USP carboxymethylcellulose sodium (CMC) in Sterile Water for Injection (SWFI). CMC is a chemically stable compound that is commonly used in oral pharmaceutical formulations and appears on the FDA list of substances that are Generally Recognized As Safe (GRAS).
# [2] = Solubility of drug product in water; type: physicochemical; details: crystalline solid
# Source text: as §1
# [3] = Solubility plot in 2-MeTHF:n-heptane; type: physicochemical; details: 2-MeTHF:n-heptane solvent mixture, organic solvent or mixture; mixture of 2-MeTHF:n-heptane, at least a 2:1 ratio
# Source text: In order to further simplify the reaction workup transition, water-miscible THF was replaced with water immiscible 2-MeTHF as the reaction co-solvent with n-heptane, thus eliminating the need for MTBE in the workup. […] This afforded a relatively wide solubility range for both the reaction and the workup while still keeping the solvent volumes at reasonable levels for the telescoped steps.
# [4] = Mechanical stressing of Form A, XRPD read-out; type: physicochemical
# Method: (§2) XRPD patterns were collected with an Inel XRG-3000 diffractometer. An incident beam of Cu Kα radiation was produced using a fine-focus tube and a parabolically graded multilayer mirror. Prior to the analysis, a silicon standard (NIST SRM 640c) was analyzed to verify the Si 111 peak position. A specimen of the sample was packed into a thin-walled glass capillary, and a beam-stop was used to minimize the background from air. Diffraction patterns were collected in transmission geometry using Windif v. 6.6 software and a curved position-sensitive Equinox detector with a 2θ range of 120°.
# (§3) XRPD patterns were collected with a PANALYTICAL® X'Pert PRO MPD diffractometer using an incident beam of Cu radiation produced using an Optix long, fine-focus source. An elliptically graded multilayer mirror was used to focus Cu Kα X-rays through the specimen and onto the detector. Prior to the analysis, a silicon specimen (NIST SRM 640c) was analyzed to verify the Si 111 peak position. A specimen of the sample was sandwiched between 3 μm-thick films and analyzed in transmission geometry. A beam-stop and short antiscatter extension were used to minimize the background generated by air. Soller slits for the incident and diffracted beams were used to minimize broadening from axial divergence. Diffraction patterns were collected using a scanning position-sensitive detector (X'CELERATOR® located 240 mm from the specimen and Data Collector software v. 2.2b.
# (§4) Form A crystal form of Compound 1 was subjected to (1) mechanical stressing experiments and (2) relative humidity stressing experiments, where the material was subjected to different levels of relative humidity (R.H.) and temperature.
# [5] = Relative humidity stressing of Form A, XRPD read-out; type: physicochemical; details: 7 days
# Method: as §2, §3, §4
# [6] = Material B/Form A relative humidity stressing (conversion study); type: physicochemical; details: approximately 75% R.H. and 41° C.
compound,measurement,setting,value
"OB(O)c1ccc(-c2cccc(F)c2)cc1F [Compound 1, 3,3′-difluorobiphenyl-4-ylboronic acid]",stability of the drug product suspended in CMC,[1],at least 48 hours
same,solubility in water,[2],sparingly soluble
same,solubility,[3],> 100 mg/mL
"Fc1cccc(-c2ccc(B3OB(c4ccc(-c5cccc(F)c5)cc4F)OB(c4ccc(-c5cccc(F)c5)cc4F)O3)c(F)c2)c1 [Compound 2, 2,4,6-tris(3,3′-difluorobiphenyl-4-yl)-1,3,5,2,4,6-trioxatriborinane]",melting point,,238 to 241 °C
"OB(O)c1ccc(-c2cccc(F)c2)cc1F [Form A, 3,3′-difluorobiphenyl-4-ylboronic acid]",XRPD Result after mechanical stressing,"[4]; compress, 10,000 lb, 5 min., no solvent","Form A, low"
same,XRPD Result after mechanical stressing,"[4]; mill, 30 Hz, 20 min., ACN",Form A
same,XRPD Result after mechanical stressing,"[4]; mill, 30 Hz, 20 min., MEK",Form A
same,XRPD Result after mechanical stressing,"[4]; mill, 30 Hz, 20 min., THF",Form A
same,XRPD Result after mechanical stressing,"[4]; mill, 30 Hz, 20 min., no solvent","Form A, low"
same,stability to humidity stressing,"[5]; 75% R.H., about 40° C.",stable
same,stability to humidity stressing,"[5]; 75% R.H., room temperature",stable
same,XRPD Result after relative humidity stressing,"[5]; 75% RH, 40° C.",Form A
same,XRPD Result after relative humidity stressing,"[5]; 75% RH, RT",Form A
same,stability to humidity stressing,"[5]; 97% R.H., room temperature",stable
same,XRPD Result after relative humidity stressing,"[5]; 97% RH, RT",Form A
"OB(O)c1ccc(-c2cccc(F)c2)cc1F [Material B, 3,3′-difluorobiphenyl-4-ylboronic acid]",crystal form conversion under humidity stressing,"[6]; after 4, 7, and 14 days",The same mixture
same,crystal form conversion under humidity stressing,[6]; as early as 1 day,convert to a mixture of Material B and Form A
